Reference: patent US4952234A, “Imidazoledione compounds useful as herbicides” (Sankyo Company Limited, priority 1985, dated 1990)

Assays:
Solubility = type: physicochemical
Description: (j) solubility: soluble in water, methanol and ethanol; insoluble in ethyl acetate and acetone;

purple nutsedge = assay: Plant growth retardation, purple nutsedge; type: in vivo, Cyperus rotundus; settings: 500 ppm; after 2 weeks vs untreated control
Description: (§1) A plastic pot was filled with upland soil to provide a surface area of soil of 150 cm^2. Seeds of paddy field rice, soybeans corn and cotton were sowed, Tubers of the perennial weed, purple nutsedge (Cyperus rotundus) were then planted into each pot and the seeds and tubers were covered with the same soil. The pots were placed in a greenhouse for 10 days, after which aqueous solutions of Substance No. 51262 (prepared as described hereafter in Example 11) to the required concentrations were mixed with 0.03% v/v of the spreader Gramin S. 5 ml of the resulting solution were sprayed onto each pot. The growth of the resulting plants were compared after 2 weeks with a control which had not been so treated.

mice = settings: mouse, in vivo, iv, 100 mg/kg
Description: A solution of Substance No. 51262 was administered intravenously to mice in an amount of 100 mg/kg bodyweight.

Komatsuna seeds = assay: Inhibitory effect on the germination of Komatsuna seeds; type: in vivo, Brassica rapa (L) var. Komatsuna Hara; settings: Brassica rapa, 72 h; 28° C. for 3 days; read-out: minimum inhibitory concentration against the germination of Komatsuna seeds
Description: Sterilized cotton was placed on the bottom of a test tube (10 mm×100 mm) to a height of about 5 mm, and the cotton was then soaked with 0.5 ml of either distilled water or of an aqueous solution containing various concentrations of Substance No. 51262. About 10 seeds of the plant Komatsuna [Brassica rapa (L) var. Komatsuna Hara] were placed into each test tube and allowed to stand at 28° C. for 3 days to determine the inhibitory concentration of Substance No. 51262, assessed by the presence or absence of germination.

various weeds = assay: Herbicidal activity against weeds, pre- and post-emergence (summary statement); type: in vivo
[1] = system: paddy field rice, soybeans, corn, cotton and purple nutsedge; assay: Plant growth retardation; type: in vivo
Description: as §1

SMILES: O=C1NC(=O)[C@@]2(N1)O[C@H](CO)[C@@H](O)[C@H]2O [Substance No. 51262]
- solubility (Solubility; acetone): insoluble
- solubility (Solubility; ethanol): soluble
- solubility (Solubility; ethyl acetate): insoluble
- solubility (Solubility; methanol): soluble
- solubility (Solubility; water): soluble
- growth inhibition of the shoot and rhizome (purple nutsedge): almost complete growth inhibition
- abnormalities observed (mice): no abnormalities were detected
- minimal effective concentration (Komatsuna seeds): 3.13 µg/mL
- herbicidal activity (various weeds): excellent herbicidal activity
- growth retardation ([1]; 125 ppm, all plants, after 2 weeks vs untreated control): about 50%
- plant growth retardation ([1]; summary statement): can retard plant growth without killing the plants
